Experimental data: patent publication US20220386606A1, “SPECIFICALLY SUBSTITUTED 3-PHENYL-5-SPIROCYCLOPENTYL-3-PYRROLIN-2-ONES AND THEIR USE AS HERBICIDES” (Bayer Aktiengesellschaft, priority 2019, published 2022)

What was measured:
ALOMY [1] = experiment: Pre-emergence herbicidal action against ALOMY; assay type: in vivo, Alopecurus myosuroides; settings: 320 g/ha, scored visually after 3 weeks vs untreated controls
How it was run: (§1)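 Pre-emergence soil-surface application: WP/EC in water, 600 to 800 L/ha, + 0.2% wetting agent, onto soil-covered seeds in sandy loam. Greenhouse, 3 wk. Visual % activity vs untreated (100% = dead).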

AVEFA [2] = experiment: Pre-emergence herbicidal action against AVEFA; assay type: in vivo, Avena fatua; settings: 320 g/ha, scored visually after 3 weeks vs untreated controls
How it was run: as §1

DIGSA [3] = experiment: Pre-emergence herbicidal action against DIGSA; assay type: in vivo, Digitaria sanguinalis; settings: 320 g/ha, scored visually after 3 weeks vs untreated controls
How it was run: as §1

ECHCG [4] = experiment: Pre-emergence herbicidal action against ECHCG; assay type: in vivo, Echinochloa crus-galli; settings: 320 g/ha, scored visually after 3 weeks vs untreated controls
How it was run: as §1

LOLRI [5] = experiment: Pre-emergence herbicidal action against LOLRI (Table 8, titled post-emergence at 320 g/ha); assay type: in vivo, Lolium rigidum; settings: table stands in the pre-emergence section
How it was run: as §1

SETVI [6] = experiment: Pre-emergence herbicidal action against SETVI; assay type: in vivo, Setaria viridis; settings: 320 g/ha, scored visually after 3 weeks vs untreated controls
How it was run: as §1

MATIN = experiment: Pre-emergence herbicidal action against MATIN; assay type: in vivo; settings: 320 g/ha
Source text: (§2) Seeds of monocotyledonous and dicotyledonous weed plants and crop plants are laid out in sandy loam soil in wood-fiber pots and covered with soil. The compounds of the invention, formulated in the form of wettable powders (WP) or as emulsion concentrates (EC), are then applied to the surface of the covering soil as aqueous suspension or emulsion at a water application rate equating to 600 to 800 L/ha with addition of 0.2% wetting agent.
(§3) After the treatment, the pots are placed in a greenhouse and kept under good growth conditions for the trial plants. The damage to the test plants is scored visually after a test period of 3 weeks by comparison with untreated controls (herbicidal activity in percent (%): 100% activity=the plants have died, 0% activity=like control plants).

VIOTR = experiment: Pre-emergence herbicidal action against VIOTR; assay type: in vivo, Viola tricolor; settings: 320 g/ha
Source text: as §2, §3

ALOMY [7] = experiment: Post-emergence herbicidal action against ALOMY; assay type: in vivo, Alopecurus myosuroides; settings: 80 g/ha, visual assessment after about 3 weeks
How it was run: (§4)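 Plants at the one-leaf stage receive a foliar spray of the formulated compound, with a 600 to 800 l/ha water rate and 0.2% wetting agent. Percent activity is judged by eye after roughly 3 weeks in the greenhouse.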

DIGSA [8] = experiment: Post-emergence herbicidal action against DIGSA; assay type: in vivo, Digitaria sanguinalis; settings: 80 g/ha, visual assessment about 3 weeks after treatment vs untreated controls
How it was run: as §4

ECHCG [9] = experiment: Post-emergence herbicidal action against ECHCG; assay type: in vivo, Echinochloa crus-galli; settings: 80 g/ha, visual assessment about 3 weeks after treatment vs untreated controls
How it was run: as §4

LOLRI [10] = experiment: Post-emergence herbicidal action against LOLRI; assay type: in vivo, Lolium rigidum; settings: 80 g/ha, visual assessment about 3 weeks after treatment vs untreated controls
How it was run: as §4

SETVI [11] = experiment: Post-emergence herbicidal action against SETVI; assay type: in vivo, Setaria viridis; settings: 80 g/ha, visual assessment about 3 weeks after treatment vs untreated controls
How it was run: as §4

AMARE = experiment: Pre-emergence herbicidal action against AMARE; assay type: in vivo, Amaranthus retroflexus; settings: 320 g/ha
Source text: as §2, §3

VERPE = experiment: Pre-emergence herbicidal action against VERPE; assay type: in vivo, Veronica persica; settings: 320 g/ha
Source text: as §2, §3

AVEFA [12] = experiment: Post-emergence herbicidal action against AVEFA; assay type: in vivo, Avena fatua; settings: 80 g/ha, visual assessment after about 3 weeks
How it was run: as §4

Compound | Pre-emergence action against ALOMY in % (ALOMY [1]) | Pre-emergence action against AVEFA in % (AVEFA [2]) | Pre-emergence action against DIGSA in % (DIGSA [3]) | Pre-emergence action against ECHCG in % (ECHCG [4]) | Pre-emergence herbicidal action against LOLRI in % (LOLRI [5]) | Pre-emergence action against SETVI in % (SETVI [6]) | Pre-emergence action against MATIN in % (MATIN) | Pre-emergence action against VIOTR in % (VIOTR) | Post-emergence action against ALOMY in % (ALOMY [7]) | Post-emergence action against DIGSA in % (DIGSA [8]) | Post-emergence action against ECHCG in % (ECHCG [9]) | Post-emergence action against LOLRI in % (LOLRI [10]) | Post-emergence action against SETVI in % (SETVI [11]) | Pre-emergence action against AMARE in % (AMARE) | Pre-emergence action against VERPE in % (VERPE) | Post-emergence action against AVEFA in % (AVEFA [12])
C=CCOCC1CCC2(C1)NC(=O)C(c1c(C)cc(C#CC)cc1Br)=C2O (centres unmarked) [Example I-67] | 100% | 80% | 100% | 100% | 100% | 100% | 80% | 100% | 100% | 90% | 90% | 90% | 90% |  |  | 
CC#Cc1cc(C)c(C2=C(OC(=O)C(C)C)C3(CCC(COCC)C3)NC2=O)c(Br)c1 (centres unmarked) [Example P-37] | 100% | 80% | 100% | 100% | 100% | 100% |  | 100% | 100% | 100% | 100% | 100% | 100% | 100% | 80% | 90%
CC#Cc1cc(C)c(C2=C(OC(=O)OCC)C3(CCC(COCC)C3)NC2=O)c(OC)c1 (centres unmarked) [Example P-48] | 100% | 100% | 100% | 100% | 100% | 100% |  | 100% | 100% | 100% | 100% | 100% | 100% |  | 80% | 90%
CC#Cc1cc(C)c(C2=C(OC(=O)C(C)C)C3(CCC(COCC)C3)NC2=O)c(OC)c1 (centres unmarked) [Example P-50] | 100% | 100% | 100% | 100% | 100% | 100% |  | 100% | 100% | 90% | 100% | 100% | 100% | 100% | 80% | 90%
CC#Cc1cc(F)c(C2=C(OC(=O)C(C)C)C3(CCC(COCC)C3)NC2=O)c(OC)c1 (centres unmarked) [Example P-67] | 100% | 80% | 100% | 100% | 90% | 100% |  |  | 100% |  | 100% | 90% | 100% | 80% | 80% | 90%
CC#Cc1cc(F)c(C2=C(OC(=O)OCC)C3(CCC(COCC)C3)NC2=O)c(OC)c1 (centres unmarked) [Example P-69] | 100% | 80% | 100% | 100% | 100% | 100% |  | 80% | 100% | 80% | 100% | 90% | 100% |  | 90% | 90%
CC#Cc1cc(C)c(C2=C(OC(=O)OCC)C3(CCC(COCCOC)C3)NC2=O)c(OC)c1 (centres unmarked) [Example P-79] | 100% | 100% | 100% | 100% | 100% | 100% |  | 100% | 100% | 90% | 100% | 90% | 100% | 80% | 90% | 90%
CC#Cc1cc(C)c(C2=C(OC(=O)OCC)C3(CCC(COCCC)C3)NC2=O)c(OC)c1 (centres unmarked) [Example P-83] | 100% | 80% | 100% | 100% | 100% | 100% |  | 90% | 100% | 100% | 100% | 100% | 100% |  | 80% | 90%
C#CCOCC1CCC2(C1)NC(=O)C(c1c(C)cc(C#CC)cc1Cl)=C2OC(=O)OCC (centres unmarked) [Example P-99] | 100% | 100% | 100% | 100% | 100% | 100% |  | 100% | 100% | 90% | 100% | 90% | 100% | 100% | 100% | 80%
